Assay results from patent US10273222B2 (CELGENE QUANTICEL RESEARCH, INC., priority 2013, dated 2019).

Legend:
FBXL10 = FBXL10 (Homo sapiens (Human), UniProt Q8NHM5); assay: FBXL10 in vitro enzyme inhibition assay (AlphaScreen); assay type: biochemical
Description: Reaction product was determined quantitatively by AlphaScreen detection after the addition of detection reagents anti-H3K36me1 antibody, AlphaScreen® Streptavidin-coated Donor beads, and AlphaScreen® Protein A Acceptor beads in 50 mM HEPES, pH7.3, 10 mM NaCl, 0.005% Brij35, 5 mM EDTA, 2 mg/ml BSA to final 10 μg/ml beads.
Plates were incubated at room temperature for 40 minutes, followed by addition of 3 μl of 50 μg/ml AlphaScreen® Streptavidin-coated Donor beads and AlphaScreen® Protein A Acceptor beads in 50 mM HEPES, pH7.3, 10 mM NaCl, 0.005% Brij35, 5 mM EDTA, 2 mg/ml BSA. Plates were read by EnVisionMultilabel Reader in AlphaScreen mode after a minimum of 2 hour or up to overnight incubation at room temperature. The AlphaScreen signal for each well was used to determine inhibition constant (IC50).

JMJD2C = JMJD2C (Homo sapiens (Human), UniProt Q9H3R0); assay: JMJD2C in vitro enzyme inhibition assay (TR-FRET); assay type: biochemical
Sequence of JMJD2C (Q9H3R0 2-372): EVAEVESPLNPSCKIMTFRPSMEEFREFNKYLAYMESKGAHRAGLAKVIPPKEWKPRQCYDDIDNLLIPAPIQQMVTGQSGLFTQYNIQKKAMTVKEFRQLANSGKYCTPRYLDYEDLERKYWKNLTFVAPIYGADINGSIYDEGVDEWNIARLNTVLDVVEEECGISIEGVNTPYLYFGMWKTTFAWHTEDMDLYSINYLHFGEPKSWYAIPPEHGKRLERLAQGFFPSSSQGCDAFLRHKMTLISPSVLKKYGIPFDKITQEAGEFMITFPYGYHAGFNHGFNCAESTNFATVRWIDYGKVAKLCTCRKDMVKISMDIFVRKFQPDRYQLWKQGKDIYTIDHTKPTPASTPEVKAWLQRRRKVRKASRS
Description: This assay determines the ability of a test compound to inhibit Jarid1A, Jarid1B, JMJD2C, and JMJD2A demethylase activity. […] Baculovirus expressed JMJD2C (GenBank Accession #BC143571, AA 2-372) was purchased from BPS Bioscience (Cat#50105).
The ability of test compounds to inhibit the activity of JMJD2C was determined in 384-well plate format under the following reaction conditions: 0.3 nM JMJD2C, 300 nM H3K9me3-biotin labeled peptide (Anaspec cat #64360), 2 μM alpha-ketoglutaric acid in assay buffer of 50 mM HEPES, pH7.3, 0.005% Brij35, 0.5 mM TCEP, 0.2 mg/ml BSA, 50 μM sodium L-ascorbate, and 2 μM ammonium iron(II) sulfate. Reaction product was determined quantitatively by TR-FRET after the addition of detection reagent Phycolink Streptavidin-allophycocyanin (Prozyme) and Europium-anti-di-methylated histone H3 lysine 9 (H3K9me2) antibody (PerkinElmer) in the presence of 5 mM EDTA in LANCE detection buffer (PerkinElmer) at a final concentration of 50 nM and 1 nM, respectively.
The assay reaction was initiated by the following: 2 μl of the mixture of 900 nM H3K9me3-biotin labeled peptide and 6 μM alpha-ketoglutaric acid with 2 μl of 11-point serial diluted inhibitor in 3% DMSO were added to each well of the plate, followed by the addition of 2 μl of 0.9 nM JMJD2C to initiate the reaction. The reaction mixture was incubated at room temperature for 30 minutes, and terminated by the addition of 6 μl of 5 mM EDTA in LANCE detection buffer containing 100 nM Phycolink Streptavidin-allophycocyanin and 2 nM Europium-anti-H3K9me2 antibody. Plates were read by EnVisionMultilabel Reader in TR-FRET mode (excitation at 320 nm, emission at 615 nm and 665 nm) after 1 hour incubation at room temperature. A ratio was calculated (665/615) for each well and fitted to determine inhibition constant (IC50).

Sequence of FBXL10 (Q8NHM5 1-650): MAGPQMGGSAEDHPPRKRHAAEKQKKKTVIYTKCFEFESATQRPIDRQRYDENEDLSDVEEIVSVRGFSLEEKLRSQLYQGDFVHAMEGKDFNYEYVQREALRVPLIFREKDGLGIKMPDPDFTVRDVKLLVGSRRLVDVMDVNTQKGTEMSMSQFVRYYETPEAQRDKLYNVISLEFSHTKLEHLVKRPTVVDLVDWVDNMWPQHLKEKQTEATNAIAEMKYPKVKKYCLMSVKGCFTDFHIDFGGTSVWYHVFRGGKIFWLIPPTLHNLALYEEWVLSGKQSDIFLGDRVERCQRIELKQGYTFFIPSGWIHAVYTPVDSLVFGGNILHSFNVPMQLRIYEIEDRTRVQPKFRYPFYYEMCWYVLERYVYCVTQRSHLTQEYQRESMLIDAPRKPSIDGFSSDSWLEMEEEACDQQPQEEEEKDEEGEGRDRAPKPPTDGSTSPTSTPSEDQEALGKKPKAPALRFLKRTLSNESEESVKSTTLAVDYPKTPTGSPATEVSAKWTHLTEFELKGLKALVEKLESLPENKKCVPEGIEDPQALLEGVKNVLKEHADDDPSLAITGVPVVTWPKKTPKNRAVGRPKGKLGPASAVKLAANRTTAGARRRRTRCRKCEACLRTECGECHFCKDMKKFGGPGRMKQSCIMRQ

IC50 (FBXL10)	IC50 (JMJD2C)	SMILES
≤ 100 nM	1000 to 10000 nM	O=C(O)c1ccnc(-c2ncn(Cc3ccccc3Cl)c2-c2ccc(F)cc2)c1 [Example 127, 2-[1-[(2-chlorophenyl)methyl]-5-(4-fluorophenyl)imidazol-4-yl]pyridine-4-carboxylic acid]
≤ 100 nM	1000 to 10000 nM	Clc1ccc(Cn2cnc(-c3cc(-c4nn[nH]n4)ccn3)c2)cc1 [Example 131, 2-[1-[(4-chlorophenyl)methyl]imidazol-4-yl]-4-(2H-tetrazol-5-yl)pyridine]
≤ 100 nM	1000 to 10000 nM	Clc1cccc(Cn2cnc(-c3cc(-c4nn[nH]n4)ccn3)c2)c1Cl [Example 158, 2-[1-[(2,3-dichlorophenyl)methyl]imidazol-4-yl]-4-(2H-tetrazol-5-yl)pyridine]
≤ 100 nM	1000 to 10000 nM	Fc1ccc(-c2c(-c3cc(-c4nn[nH]n4)ccn3)ncn2CCc2ccccc2Cl)cc1 [Example 132, 2-[1-[2-(2-chlorophenyl)ethyl]-5-(4-fluorophenyl)imidazol-4-yl]-4-(2H-tetrazol-5-yl)pyridine]
≤ 100 nM	100 to 1000 nM	O=C(O)c1ccnc(-c2cn(Cc3cccc(C(F)(F)F)c3)cn2)c1 [Example 117, 2-[1-[[3-(trifluoromethyl)phenyl]methyl]imidazol-4-yl]pyridine-4-carboxylic acid]
≤ 100 nM	1000 to 10000 nM	c1ccc2c(c1)CCC(Cn1cnc(-c3cc(-c4nn[nH]n4)ccn3)c1)C2 (stereo not drawn) [Example 146, 2-[1-(1,2,3,4-tetrahydronaphthalen-2-ylmethyl)imidazol-4-yl]-4-(2H-tetrazol-5-yl)pyridine]
≤ 100 nM	1000 to 10000 nM	Cn1cnc(-c2cc(-c3nn[nH]n3)ccn2)c1-c1ccc(F)c(C(=O)NCc2ccccc2)c1 [Example 65, N-benzyl-2-fluoro-5-[3-methyl-5-[4-(2H-tetrazol-5-yl)pyridin-2-yl]imidazol-4-yl]benzamide]
≤ 100 nM	1000 to 10000 nM	CCOc1ccccc1CCn1cnc(-c2cc(-c3nn[nH]n3)ccn2)c1 [Example 128, 2-[1-[2-(2-ethoxyphenyl)ethyl]imidazol-4-yl]-4-(2H-tetrazol-5-yl)pyridine]
≤ 100 nM	1000 to 10000 nM	Cn1cnc(-c2cc(-c3nn[nH]n3)ccn2)c1-c1ccc(F)cc1OCc1ccccc1 [Example 148, 2-[5-(4-fluoro-2-phenylmethoxyphenyl)-1-methylimidazol-4-yl]-4-(2H-tetrazol-5-yl)pyridine]
100 to 1000 nM	1000 to 10000 nM	CC(=O)OCn1nnc(-c2ccnc(-c3cn(Cc4ccccc4Cl)cn3)c2)n1 [Example 167, (5-(2-(1-(2-chlorobenzyl)-1H-imidazol-4-yl)pyridin-4-yl)-2H-tetrazol-2-yl)methyl acetate]
≤ 100 nM	1000 to 10000 nM	Cn1cnc(-c2cc(-c3nn[nH]n3)ccn2)c1-c1ccc(F)c(OCc2ccccc2)c1 [Example 160, 2-[5-(4-fluoro-3-phenylmethoxyphenyl)-1-methylimidazol-4-yl]-4-(2H-tetrazol-5-yl)pyridine]

The next lines start with the compound.

SMILES	IC50 (FBXL10)	IC50 (JMJD2C)
Cn1cnc(-c2cc(-c3nn[nH]n3)ccn2)c1-c1ccc(Cl)c(OCc2ccccc2)c1 [Example 161, 2-[5-(4-chloro-3-phenylmethoxyphenyl)-1-methylimidazol-4-yl]-4-(2H-tetrazol-5-yl)pyridi]	≤ 100 nM	
Clc1cccc(Cn2cnc(-c3cc(-c4nn[nH]n4)ccn3)c2)c1 [Example 130, 2-[1-[(3-chlorophenyl)methyl]imidazol-4-yl]-4-(2H-tetrazol-5-yl)pyridine]	≤ 100 nM	1000 to 10000 nM
Cn1cnc(-c2cc(C(=O)O)ccn2)c1-c1c(F)cccc1OCC1CC1 [Example 122, 2-[5-[2-(cyclopropylmethoxy)-6-fluorophenyl]-1-methylimidazol-4-yl]pyridine-4-carboxylic acid]	≤ 100 nM	1000 to 10000 nM
FC(F)(F)COc1ccccc1Cn1cnc(-c2cc(-c3nn[nH]n3)ccn2)c1 [Example 152, 4-(2H-tetrazol-5-yl)-2-[1-[[2-(2,2,2-trifluoroethoxy)phenyl]methyl]imidazol-4-yl]pyridine]	≤ 100 nM	1000 to 10000 nM
CCCCOc1cc(F)ccc1-c1c(-c2cc(-c3nn[nH]n3)ccn2)ncn1C [Example 149, 2-[5-(2-butoxy-4-fluorophenyl)-1-methylimidazol-4-yl]-4-(2H-tetrazol-5-yl)pyridine]	≤ 100 nM	1000 to 10000 nM
Cn1cnc(-c2cc(-c3nn[nH]n3)ccn2)c1-c1ccc(F)c(C(=O)Nc2ccccc2)c1 [Example 163, 2-fluoro-5-[3-methyl-5-[4-(2H-tetrazol-5-yl)pyridin-2-yl]imidazol-4-yl]-N-phenylbenzamide]	100 to 1000 nM	1000 to 10000 nM
CC(=O)OCn1nnc(-c2ccnc(-c3ncn(Cc4ccccc4Cl)c3-c3ccc(F)cc3)c2)n1 [Example 138, [5-[2-[1-[(2-chlorophenyl)methyl]-5-(4-fluorophenyl)imidazol-4-yl]pyridin-4-yl]tetrazol-2-yl]methyl acetate]	1000 to 10000 nM	1000 to 10000 nM
Cn1cnc(-c2cc(C(=O)O)ccn2)c1-c1cc(F)c(F)cc1OCC1CC1 [Example 121, 2-[5-[2-(cyclopropylmethoxy)-4,5-difluorophenyl]-1-methylimidazol-4-yl]pyridine-4-carboxylic acid]	≤ 100 nM	1000 to 10000 nM
Clc1ccc(-c2c(-c3cc(-c4nn[nH]n4)ccn3)ncn2CC2CC2)cc1 [Example 136, 2-[5-(4-chlorophenyl)-1-(cyclopropylmethyl)imidazol-4-yl]-4-(2H-tetrazol-5-yl)pyridine]	≤ 100 nM	1000 to 10000 nM
Cn1cnc(-c2cc(-c3nn[nH]n3)ccn2)c1-c1ccc(F)c2ccccc12 [Example 164, 2-[5-(4-fluoronaphthalen-1-yl)-1-methylimidazol-4-yl]-4-(2H-tetrazol-5-yl)pyridine]	≤ 100 nM	1000 to 10000 nM
Cn1cnc(-c2cc(-c3nn[nH]n3)ccn2)c1-c1ccc(F)c(OCC(F)(F)F)c1 [Example 159, 2-[5-[4-fluoro-3-(2,2,2-trifluoroethoxy)phenyl]-1-methylimidazol-4-yl]-4-(2H-tetrazol-5-yl)pyridine]	100 to 1000 nM	1000 to 10000 nM
CC(C)(C)C(=O)OCn1nnc(-c2ccnc(-c3ncn(Cc4ccccc4Cl)c3-c3ccc(F)cc3)c2)n1 [Example 139, [5-[2-[1-[(2-chlorophenyl)methyl]-5-(4-fluorophenyl)imidazol-4-yl]pyridin-4-yl]tetrazol-2-yl]methyl 2,2-dimethylpropanoate]	1000 to 10000 nM	1000 to 10000 nM
Clc1cccc(Cl)c1Cn1cnc(-c2cc(-c3nn[nH]n3)ccn2)c1 [Example 151, 2-[1-[(2,6-dichlorophenyl)methyl]imidazol-4-yl]-4-(2H-tetrazol-5-yl)pyridine]	≤ 100 nM	1000 to 10000 nM
Clc1ccc(-c2c(-c3cc(-c4nn[nH]n4)ccn3)ncn2CCc2ccccc2Cl)cc1 [Example 133, 2-[5-(4-chlorophenyl)-1-[2-(2-chlorophenyl)ethyl]imidazol-4-yl]-4-(2H-tetrazol-5-yl)pyridine]	100 to 1000 nM	1000 to 10000 nM
CC(C)(C)C(=O)OCn1nnc(-c2ccnc(-c3cn(Cc4ccccc4Cl)cn3)c2)n1 [Example 166, (5-(2-(1-(2-chlorobenzyl)-1H-imidazol-4-yl)pyridin-4-yl)-2H-tetrazol-2-yl)methyl pivalate]	1000 to 10000 nM	1000 to 10000 nM
